# Measured values: patent US7998987B2, “Inhibitors of c-Met and uses thereof” (Vertex Pharmaceuticals Incorporated, priority 2005, dated 2011)
# Target: c-Met (Homo sapiens, UniProt P08581)
# Assay: Ki determination for the inhibition of c-Met kinase activity (standard coupled enzyme system)
# Format: biochemical
# Details: coupled enzyme system, 200 μM ATP, 80 nM c-Met, 30° C.; read-out: c-Met Ki
# Method: Ki Determination for the Inhibition of c-Met
# Reactions were carried out in a solution containing 100 mM HEPES (pH 7.5), 10 mM MgCl2, 25 mM NaCl, 300 μM NADH, 1 mM DTT, and 1.5% DMSO. Final substrate concentrations in the assay were 200 μM ATP (Sigma Chemicals, St Louis, Mo.) and 10 μM polyGluTyr (Sigma Chemical Company, St. Louis). Reactions were carried out at 30° C. and 80 nM c-Met. Final concentrations of the components of the coupled enzyme system were 2.5 mM phosphoenolpyruvate, 300 μM NADH, 30 μg/ml pyruvate kinase and 10 μg/ml lactate dehydrogenase.
# An assay stock buffer solution was prepared containing all of the reagents listed above with the exception of ATP and a test compound of the present invention. […] The reaction was initiated by the addition of 20 μL of ATP (final concentration 200 μM). Rates of reaction were obtained using a Molecular Devices Spectramax plate reader (Sunnyvale, Calif.) over 10 minutes at 30° C. The Ki values were determined from the rate data as a function of inhibitor concentration.
# c-Met, sequence (P08581 25-1390): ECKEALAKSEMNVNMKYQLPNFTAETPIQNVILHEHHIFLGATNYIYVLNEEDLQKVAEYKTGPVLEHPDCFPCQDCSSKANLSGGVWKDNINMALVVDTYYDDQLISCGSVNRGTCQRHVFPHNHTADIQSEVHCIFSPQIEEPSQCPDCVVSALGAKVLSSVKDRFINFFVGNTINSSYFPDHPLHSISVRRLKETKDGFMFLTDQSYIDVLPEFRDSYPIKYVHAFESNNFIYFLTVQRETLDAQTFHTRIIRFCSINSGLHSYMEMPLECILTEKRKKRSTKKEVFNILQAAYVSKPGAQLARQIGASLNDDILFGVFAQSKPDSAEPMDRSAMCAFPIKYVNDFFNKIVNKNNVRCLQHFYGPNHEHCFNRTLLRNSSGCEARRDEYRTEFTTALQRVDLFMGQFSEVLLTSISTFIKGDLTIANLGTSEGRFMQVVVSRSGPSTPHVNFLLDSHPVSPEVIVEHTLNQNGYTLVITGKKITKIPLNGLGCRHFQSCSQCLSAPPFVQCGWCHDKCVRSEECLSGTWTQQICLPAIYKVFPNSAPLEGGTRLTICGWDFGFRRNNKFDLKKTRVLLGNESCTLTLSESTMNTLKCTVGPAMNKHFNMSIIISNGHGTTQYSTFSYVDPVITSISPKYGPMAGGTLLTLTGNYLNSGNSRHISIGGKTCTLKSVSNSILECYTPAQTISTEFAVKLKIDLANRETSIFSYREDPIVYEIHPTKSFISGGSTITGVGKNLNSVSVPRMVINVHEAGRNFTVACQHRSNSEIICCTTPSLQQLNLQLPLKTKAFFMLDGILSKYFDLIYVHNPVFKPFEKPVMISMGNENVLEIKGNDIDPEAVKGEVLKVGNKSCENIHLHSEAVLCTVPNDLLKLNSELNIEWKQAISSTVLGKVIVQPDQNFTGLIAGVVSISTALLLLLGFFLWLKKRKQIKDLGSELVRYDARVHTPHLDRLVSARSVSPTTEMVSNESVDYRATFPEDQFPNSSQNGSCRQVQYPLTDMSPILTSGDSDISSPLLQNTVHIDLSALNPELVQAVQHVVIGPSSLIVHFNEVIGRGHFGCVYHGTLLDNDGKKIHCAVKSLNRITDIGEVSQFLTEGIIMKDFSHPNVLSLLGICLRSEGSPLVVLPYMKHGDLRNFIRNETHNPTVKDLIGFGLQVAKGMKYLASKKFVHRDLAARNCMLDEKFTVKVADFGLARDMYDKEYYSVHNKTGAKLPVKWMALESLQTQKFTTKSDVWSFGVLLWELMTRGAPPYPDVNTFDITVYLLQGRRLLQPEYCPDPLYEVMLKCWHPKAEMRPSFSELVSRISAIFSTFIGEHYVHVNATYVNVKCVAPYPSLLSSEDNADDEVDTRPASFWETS
row,Ki,SMILES
1,< 0.1 µM,Cc1cc(C)cc(Nc2ccc3nnc(Cc4ccc(O)c(Cl)c4)n3n2)c1 [Compound 296]
2,< 0.1 µM,C[C@@H](c1ccc(O)cc1)c1nnc2ccc(NC3CC4CCC3C4)nn12 (stereo partly shown) [Compound 420]
3,> 2 µM,C=CCc1ccccc1OCc1nnc2ccc(Nc3cccc(Cl)c3)nn12 [Compound 383]
4,> 2 µM,Clc1cccc(Nc2ccc3nnc(CCc4ccncc4)n3n2)c1 [Compound 394]
5,0.1 to 2 µM,COc1ccc(Cc2nnc3ccc(Nc4cccc(Cl)c4)nn23)cc1Br [Compound 437]
6,< 0.1 µM,Clc1cccc(Nc2ccc3nnc(CNc4n[nH]c5ncccc45)n3n2)c1 [Compound 519]
7,> 2 µM,NC(=O)c1cc(Cc2nnc3ccc(Nc4cccc(Cl)c4)nn23)ccc1F [Compound 476]
8,> 2 µM,Cc1cccc(SCc2nnc3ccc(Nc4cccc(Cl)c4)nn23)c1 [Compound 388]
9,0.1 to 2 µM,CCn1nccc1Nc1ccc2nnc([C@@H](C)c3ccc(O)cc3)n2n1 [Compound 497]
10,> 2 µM,CCOc1cccc(OCc2nnc3ccc(Nc4cccc(Cl)c4)nn23)c1 [Compound 385]
11,0.1 to 2 µM,O=C1COc2ccc(C3=Nn4c(Cc5ccc(O)cc5)nnc4SC3)cc2N1 [Compound 535]
12,> 2 µM,Clc1cccc(Nc2ccc3nnc(Cc4c[nH]c5ccccc45)n3n2)c1 [Compound 460]
13,< 0.1 µM,COc1cc(Cc2nnc3ccc(Nc4cccc(Cl)c4)nn23)ccc1O [Compound 442]
14,> 2 µM,O=C(N[C@@H](Cc1ccccc1)C1=Nn2c(Cc3ccc(O)cc3)nnc2SC1)OCc1ccccc1 [Compound 537]
15,0.1 to 2 µM,OCCc1cccc(Nc2ccc3nnc(Cc4ccc5c(c4)OCO5)n3n2)c1 [Compound 301]
16,0.1 to 2 µM,C[C@@H](c1ccc(O)cc1)c1nnc2ccc(Nc3ccnn3C)nn12 [Compound 505]
17,< 0.1 µM,Oc1ccc(Cc2nnc3ccc(Nc4cccc(C(F)(F)F)c4)nn23)cc1F [Compound 292]
18,0.1 to 2 µM,CC(=O)N1CCC(Nc2ccc3nnc(Cc4ccc(O)cc4)n3n2)CC1 [Compound 323]
19,> 2 µM,Clc1cccc(Nc2ccc3nnc(Cc4ccccc4)n3n2)c1 [Compound 315]

row,Ki,SMILES
1,> 2 µM,COc1cc(NCc2nnc3ccc(Nc4cccc(Cl)c4)nn23)cc(OC)c1OC [Compound 346]
2,< 0.1 µM,c1csc(C2=Nn3c(Cc4ccc5c(c4)OCO5)nnc3SC2)c1 [Compound 544]
3,0.1 to 2 µM,CS(=O)(=O)Nc1cccc(Cc2nnc3ccc(Nc4cccc(Cl)c4)nn23)c1 [Compound 403]
4,< 0.1 µM,C[C@@H](c1ccc(O)cc1)c1nnc2ccc(Nc3nc4ccc(Cl)cc4s3)nn12 [Compound 483]
5,0.1 to 2 µM,NC(=O)c1ccc(NCc2nnc3ccc(Nc4cccc(Cl)c4)nn23)cc1 [Compound 467]
6,> 2 µM,COc1ccc(NCc2nnc3ccc(Nc4cccc(Cl)c4)nn23)cc1 [Compound 350]
7,< 0.1 µM,C[C@@H](c1ccc(O)cc1)c1nnc2ccc(Sc3nc4ccccc4[nH]3)nn12 [Compound 507]
8,< 0.1 µM,COc1ccc(Cc2nnc3ccc(Nc4cccc(C#N)c4)nn23)cc1 [Compound 287]
9,0.1 to 2 µM,COc1ccc(OCc2nnc3ccc(Nc4cccc(Cl)c4)nn23)c(N)c1 [Compound 434]
10,< 0.1 µM,Clc1cccc(Nc2ccc3nnc(CNc4cccc5ncccc45)n3n2)c1 [Compound 518]
11,< 0.1 µM,Oc1ccc(Cc2nnc3ccc(Nc4cc(Cl)ccc4Cl)nn23)cc1 [Compound 361]
12,> 2 µM,CC(C)Oc1ccc(NCc2nnc3ccc(Nc4cccc(Cl)c4)nn23)cc1 [Compound 393]
13,> 2 µM,Fc1ccc(NCc2nnc3ccc(Nc4cccc(Cl)c4)nn23)cc1F [Compound 341]
14,> 2 µM,COc1cc(NCc2nnc3ccc(Nc4cccc(Cl)c4)nn23)c(C(C)=O)cc1OC [Compound 331]
15,< 0.1 µM,Fc1ccc(Cl)cc1Nc1ccc2nnc(Cc3ccc4c(c3)OCO4)n2n1 [Compound 362]
16,> 2 µM,O=C(O)c1cn(Cc2nnc3ccc(Nc4cccc(Cl)c4)nn23)c2ccccc12 [Compound 461]
17,0.1 to 2 µM,Clc1cccc(Nc2ccc3nnc(CNc4ccc5[nH]ncc5c4)n3n2)c1 [Compound 488]
18,< 0.1 µM,CCC(c1ccc(O)cc1)c1nnc2ccc(Nc3cccc(Cl)c3)nn12 (stereo not shown) [Compound 367]
19,> 2 µM,CC(=O)c1cn(Cc2nnc3ccc(Nc4cccc(Cl)c4)nn23)c2ncccc12 [Compound 480]

# Same assay, conditions: coupled enzyme system, 200 μM ATP, 10 μM polyGluTyr, 80 nM c-Met, 30° C.; read-out: c-Met Ki
row,SMILES,Ki
1,COc1ccc([C@H](C)c2nnc3sc(Nc4cccc(F)c4)nn23)cc1 [Compound 158],0.1 to 2 µM
2,Oc1ccc(Cc2nnc3ccc(N4CCCCC4)nn23)cc1 [Compound 177],0.1 to 2 µM
3,Oc1cccc2c1ccn2Cc1nnc2sc(Nc3cccc(C(F)(F)F)c3)nn12 [Compound 160],< 0.1 µM
4,CC(C)(C)c1cccc(Nc2ccc3nnc(Cc4ccc(O)cc4)n3n2)c1 [Compound 182],< 0.1 µM
5,CC(=O)Nc1ccc(NCc2nnc3ccc(-c4ccccc4)nn23)cc1 [Compound 209],> 2 µM
6,COc1cc(Cc2nnc3sc(Nc4cccnc4)nn23)ccc1O [Compound 51],> 2 µM
7,Oc1ccc(Cc2nnc3sc(NC4CC4)nn23)cc1 [Compound 19],> 2 µM
8,Oc1ccc(Cc2nnc3ccc(-c4ccccc4)nn23)cc1F [Compound 213],0.1 to 2 µM
9,COc1cccc(Nc2nn3c(Cc4ccc(O)c(Cl)c4)nnc3s2)c1 [Compound 36],0.1 to 2 µM
10,FC(F)(F)c1cccc(Nc2nn3c(Cn4ccc5ncccc54)nnc3s2)c1 [Compound 136],< 0.1 µM
11,Oc1ccc(Cc2nnc3sc(Nc4ccc(C(F)(F)F)cc4)nn23)cc1 [Compound 43],< 0.1 µM
12,Oc1ccc(Cc2nnc3sc(NCc4cccnc4)nn23)cc1 [Compound 9],0.1 to 2 µM
13,COc1ccc(Nc2nn3c(Cc4ccc(O)cc4)nnc3s2)cc1 [Compound 80],< 0.1 µM
14,Oc1ccc(Cc2nnc3ccc(N4CCC(CCc5ccccc5)C4)nn23)cc1 (stereo not shown) [Compound 205],0.1 to 2 µM
15,CC(c1ccc(O)cc1)c1nnc2sc(Nc3cccnc3)nn12 (stereo not shown) [Compound 82],< 0.1 µM
16,Oc1ccc(Cc2nnc3sc(NCCN4CCOCC4)nn23)cc1 [Compound 15],> 2 µM
17,Oc1ccc(Cc2nnc3sc(Nc4cccc(F)c4Cl)nn23)cc1Cl [Compound 103],0.1 to 2 µM
18,Oc1cccc(Cc2nnc3sc(Nc4cccc(F)c4Cl)nn23)c1 [Compound 110],0.1 to 2 µM

row,SMILES,Ki
1,CNC(=O)c1nn2c(C(C)c3ccc(O)cc3)nnc2s1 (stereo not shown) [Compound 87],> 2 µM
2,c1ccc(-c2ccc3nnc(CNc4cccnc4)n3n2)cc1 [Compound 208],> 2 µM
3,Oc1ccc(CCc2nnc3sc(Nc4cccc(Cl)c4)nn23)cc1 [Compound 94],> 2 µM
4,Oc1cccc(CCc2nnc3sc(Nc4cc(F)cc(F)c4)nn23)c1 [Compound 120],> 2 µM
5,Oc1ccc(Cc2nnc3sc(NC4CCCCC4)nn23)cc1 [Compound 86],0.1 to 2 µM
6,CC(C)[C@H](C)Nc1ccc2nnc(Cc3ccc(O)cc3)n2n1 [Compound 193],0.1 to 2 µM
7,Oc1cccc(CCc2nnc3sc(Nc4cccc(F)c4F)nn23)c1 [Compound 121],> 2 µM
8,COc1ccc(Cc2nnc3sc(Cc4ccccc4)nn23)cc1 [Compound 21],> 2 µM
9,Fc1ccc(Cc2nnc3sc(Nc4cccc(Cl)c4)nn23)cc1 [Compound 171],< 0.1 µM
10,COC(=O)c1ccc(Nc2nn3c(Cc4ccc(O)cc4)nnc3s2)cc1 [Compound 16],< 0.1 µM
11,CC(c1ccc(O)cc1)c1nnc2sc(Nc3cccc(F)c3F)nn12 (stereo not shown) [Compound 101],< 0.1 µM
12,C[C@H](c1ccc(O)cc1)c1nnc2sc(Nc3cccc(F)c3)nn12 [Compound 106],< 0.1 µM
13,CC(c1ccc(O)cc1)c1nnc2sc(Nc3ccc(Cl)cc3)nn12 (stereo not shown) [Compound 53],< 0.1 µM
14,COCC1CCCN1c1nn2c(Cc3ccc(OC)cc3)nnc2s1 (stereo not shown) [Compound 12],> 2 µM
15,O=C1CCN(c2ccc3nnc(Cc4ccc(O)cc4)n3n2)CCN1 [Compound 190],0.1 to 2 µM
16,Oc1cccc(Cc2nnc3sc(Nc4cccc(F)c4)nn23)c1 [Compound 122],0.1 to 2 µM
17,Oc1ccc(Cc2nnc3sc(Nc4cc(Cl)ccc4Cl)nn23)cc1 [Compound 77],< 0.1 µM

# Other lines, results leading:
row,Ki,SMILES
1,0.1 to 2 µM,CC1CCCC(Nc2ccc3nnc(Cc4ccc(O)cc4)n3n2)C1C (stereo not shown) [Compound 270]
2,< 0.1 µM,CC1CCCC(Nc2ccc3nnc(Cc4ccc(O)cc4)n3n2)C1 (stereo not shown) [Compound 284]
3,0.1 to 2 µM,CNC(=O)c1cccc(Nc2ccc3nnc(Cc4ccc(O)c(Cl)c4)n3n2)c1 [Compound 234]
4,< 0.1 µM,Fc1cccc(Nc2ccc3nnc(Cc4ccc5c(c4)OCO5)n3n2)c1 [Compound 286]
5,0.1 to 2 µM,COc1ccc(CNc2ccc3nnc(Cc4ccc(O)cc4)n3n2)cc1 [Compound 267]
6,0.1 to 2 µM,Cc1cc(C)cc(Nc2ccc3nnc(Cc4ccc5c(c4)OCO5)n3n2)c1 [Compound 248]
7,< 0.1 µM,Oc1ccc(Cc2nnc3ccc(NC4CCCCC4)nn23)cc1 [Compound 214]
8,0.1 to 2 µM,COc1ccc(Cc2nnc3ccc(Nc4cccc(C(C)O)c4)nn23)cc1 (stereo not shown) [Compound 257]
9,0.1 to 2 µM,CCC(CC)Nc1ccc2nnc(Cc3ccc(O)cc3)n2n1 [Compound 281]
10,0.1 to 2 µM,OCc1cccc(Nc2ccc3nnc(Cc4ccc(O)c(Cl)c4)n3n2)c1 [Compound 261]
11,0.1 to 2 µM,Oc1ccc(Cc2nnc3ccc(NC4c5ccccc5CC4O)nn23)cc1 (stereo not shown) [Compound 217]
12,0.1 to 2 µM,CN1CCC(Nc2ccc3nnc(Cc4ccc(O)cc4)n3n2)CC1 [Compound 283]
